The source made the active and inactive calls. No cut-off for these calls is given here.
Key:
[1] = test system: Bacillus subtilis; experiment: Antimicrobial activity against Bacillus subtilis assessed as inhibition zone at 200 ug/disk after 24 hrs by disc-diffusion method; format: functional; details: read-out: IZ
[2] = test system: Candida albicans; experiment: Antimicrobial activity against Candida albicans assessed as inhibition zone at 200 ug/disk after 24 hrs by disc-diffusion method; format: functional; details: read-out: IZ
[3] = test system: A549; experiment: Growth inhibition of human A549 cells at 10 uM after 48 hrs; format: functional
[4] = (§1) Growth inhibition of human HCT15 cells at 10 uM after 48 hrs; format: functional; details: HCT-15, 48 h, read-out: GI
[5] = test system: HOP-62; experiment: Growth inhibition of human HOP62 cells at 10 uM after 48 hrs; format: functional
[6] = test system: MCF7; experiment: Growth inhibition of human MCF7 cells at 10 uM after 48 hrs; format: functional
[7] = test system: MDA-MB-435; experiment: Growth inhibition of human MDA-MB-435 cells at 10 uM after 48 hrs; format: functional
[8] = test system: Bacillus subtilis; experiment: Antimicrobial activity against Bacillus subtilis assessed as inhibition of visible growth after 24 hrs by disc-diffusion method; format: functional, organism-based
[9] = (§2) Growth inhibition of human Hs 578T cells at 10 uM after 48 hrs; format: functional; details: read-out: GI
[10] = test system: A498; experiment: Growth inhibition of human A498 cells at 10 uM after 48 hrs; format: functional
[11] = test system: Staphylococcus aureus; experiment: Antimicrobial activity against Staphylococcus aureus assessed as inhibition zone at 200 ug/disk after 24 hrs by disc-diffusion method; format: functional; details: read-out: IZ
[12] = test system: U-251; experiment: Growth inhibition of human U251 cells at 10 uM after 48 hrs; format: functional
[13] = test system: Staphylococcus aureus; experiment: Antimicrobial activity against Staphylococcus aureus assessed as inhibition of visible growth after 24 hrs by disc-diffusion method; format: functional, organism-based
[14] = (§3) Growth inhibition of human UO31 cells at 10 uM after 48 hrs; format: functional; details: UO-31, 48 h, read-out: GI
[15] = test system: Pseudomonas aeruginosa; experiment: Antimicrobial activity against Pseudomonas aeruginosa assessed as inhibition zone at 200 ug/disk after 24 hrs by disc-diffusion method; format: functional; details: read-out: IZ
[16] = test system: Escherichia coli; experiment: Antimicrobial activity against Escherichia coli assessed as inhibition zone at 200 ug/disk after 24 hrs by disc-diffusion method; format: functional; details: read-out: IZ
[17] = test system: SK-MEL-5; experiment: Growth inhibition of human SK-MEL-5 cells at 10 uM after 48 hrs; format: functional
[18] = test system: Escherichia coli; experiment: Antimicrobial activity against Escherichia coli assessed as inhibition of visible growth after 24 hrs by disc-diffusion method; format: functional, organism-based
[19] = target: T1, Dihydrofolate reductase (Bos taurus, UniProt P00376); experiment: Inhibition of bovine liver DHFR
T1 sequence (P00376 whole entry): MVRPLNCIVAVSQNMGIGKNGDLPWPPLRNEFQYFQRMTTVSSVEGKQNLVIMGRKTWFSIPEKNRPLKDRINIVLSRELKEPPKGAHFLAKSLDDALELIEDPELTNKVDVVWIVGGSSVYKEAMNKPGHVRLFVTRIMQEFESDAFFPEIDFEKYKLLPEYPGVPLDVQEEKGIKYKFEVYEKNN

[20] = (§4) Growth inhibition of human RPMI8226 cells at 10 uM after 48 hrs; format: functional; details: RPMI-8226, 48 h, read-out: GI
[21] = (§5) Growth inhibition of human PC3 cells at 10 uM after 48 hrs; format: functional; details: PC-3, 48 h, read-out: GI
[22] = (§6) Growth inhibition of human SF295 cells at 10 uM after 48 hrs; format: functional; details: SF-295, 48 h, read-out: GI
[23] = test system: T47D; experiment: Growth inhibition of human T47D cells at 10 uM after 48 hrs; format: functional
[24] = test system: 786-0; experiment: Growth inhibition of human 786-0 cells at 10 uM after 48 hrs; format: functional
[25] = (§7) Growth inhibition of human HOP92 cells at 10 uM after 48 hrs; format: functional; details: HOP-92, 48 h, read-out: GI
[26] = (§8) Growth inhibition of human UACC257 cells at 10 uM after 48 hrs; format: functional; details: UACC-257, 48 h, read-out: GI
[27] = test system: SR; experiment: Growth inhibition of human SR cells at 10 uM after 48 hrs; format: functional
[28] = test system: HCT-15; experiment: as §1; format: functional
[29] = test system: RXF 393; experiment: Growth inhibition of human RXF393 cells at 10 uM after 48 hrs; format: functional
[30] = test system: HT-29; experiment: Growth inhibition of human HT-29 cells at 10 uM after 48 hrs; format: functional
[31] = test system: KM12; experiment: Growth inhibition of human KM12 cells at 10 uM after 48 hrs; format: functional
[32] = test system: MOLT-4; experiment: Growth inhibition of human MOLT4 cells at 10 uM after 48 hrs; format: functional
[33] = test system: UACC-62; experiment: Growth inhibition of human UACC62 cells at 10 uM after 48 hrs; format: functional
[34] = test system: Hs-578T; experiment: as §2; format: functional
[35] = test system: HCT-116; experiment: Growth inhibition of human HCT116 cells at 10 uM after 48 hrs; format: functional
[36] = test system: NCI-H522; experiment: Growth inhibition of human NCI-H522 cells at 10 uM after 48 hrs; format: functional
[37] = test system: UO-31; experiment: as §3; format: functional
[38] = test system: CCRF-CEM; experiment: Growth inhibition of human CCRF-CEM cells at 10 uM after 48 hrs; format: functional
[39] = test system: HL-60(TB); experiment: Growth inhibition of human HL-60(TB) cells at 10 uM after 48 hrs; format: functional
[40] = test system: MDA-MB-231; experiment: Growth inhibition of human MDA-MB-231 cells at 10 uM after 48 hrs; format: functional
[41] = test system: CAKI-1; experiment: Growth inhibition of human CAKI-1 cells at 10 uM after 48 hrs; format: functional
[42] = test system: SF-539; experiment: Growth inhibition of human SF539 cells at 10 uM after 48 hrs; format: functional
[43] = test system: Malme-3M; experiment: Growth inhibition of human MALME-3M cells at 10 uM after 48 hrs; format: functional
[44] = test system: SK-MEL-28; experiment: Growth inhibition of human SK-MEL-28 cells at 10 uM after 48 hrs; format: functional, cell-based
[45] = test system: MDA-MB-468; experiment: Growth inhibition of human MDA-MB-468 cells at 10 uM after 48 hrs; format: functional
[46] = test system: SNB-19; experiment: Growth inhibition of human SNB19 cells at 10 uM after 48 hrs; format: functional
[47] = test system: RPMI-8226; experiment: as §4; format: functional
[48] = test system: PC-3; experiment: as §5; format: functional
[49] = test system: K562; experiment: Growth inhibition of human K562 cells at 10 uM after 48 hrs; format: functional
[50] = test system: SF-295; experiment: as §6; format: functional
[51] = test system: OVCAR-4; experiment: Growth inhibition of human OVCAR4 cells at 10 uM after 48 hrs; format: functional
[52] = test system: NCI-H226; experiment: Growth inhibition of human NCI-H226 cells at 10 uM after 48 hrs; format: functional
[53] = test system: HOP-92; experiment: as §7; format: functional
[54] = test system: UACC-257; experiment: as §8; format: functional

SMILES: Nc1nnc(Sc2nc3ccc(Cl)cc3c(=O)n2-c2ccc(Cl)cc2)s1
- zone of inhibition at 200 µg/disc [1]: 20 mm
- zone of inhibition at 200 µg/disc [2]: 8 mm
- inhibition of growth at 10 µM ([3]; A549, 48 h, read-out: GI): 11.1%
- inhibition of growth at 10 µM [4]: 12.7%
- inhibition of growth at 10 µM ([5]; HOP-62, 48 h, read-out: GI): 16.7%
- inhibition of growth at 10 µM ([6]; MCF7, 48 h, read-out: GI): 12.7%
- inhibition of growth at 10 µM ([7]; MDA-MB-435, 48 h, read-out: GI): 10.8%
- Activity [8]: Active
- inhibition of growth at 10 µM [9]: 13.3%
- inhibition of growth at 10 µM ([10]; A498, 48 h, read-out: GI): 30.6%
- zone of inhibition at 200 µg/disc [11]: 18 mm
- inhibition of growth at 10 µM ([12]; U-251, 48 h, read-out: GI): 11%
- Activity [13]: Active
- inhibition of growth at 10 µM [14]: 24.6%
- zone of inhibition at 200 µg/disc [15]: 12 mm
- zone of inhibition at 200 µg/disc [16]: 16 mm
- inhibition of growth at 10 µM ([17]; SK-MEL-5, 48 h, read-out: GI): 10.9%
- Activity [18]: Active
- IC50 [19]: 1000 nM
- inhibition of growth at 10 µM [20]: 12.1%
- inhibition of growth at 10 µM [21]: 14.1%
- inhibition of growth at 10 µM [22]: 20.6%
- inhibition of growth at 10 µM ([23]; read-out: GI): 29.2%
- inhibition of growth at 10 µM ([24]; 786-0, 48 h, read-out: GI): 15.4%
- inhibition of growth at 10 µM [25]: 53.7%
- inhibition of growth at 10 µM [26]: 12.3%

SMILES: Cc1ccc2nc(Sc3nnc(N)s3)n(-c3ccc(Cl)cc3)c(=O)c2c1
- zone of inhibition at 200 µg/disc [1]: 26 mm
- zone of inhibition at 200 µg/disc [2]: 8 mm
- growth inhibition (GI) [27]: inactive
- growth inhibition (GI) [3]: inactive
- growth inhibition (GI) [28]: inactive
- growth inhibition (GI) [5]: inactive
- growth inhibition (GI) [6]: inactive
- growth inhibition (GI) [7]: inactive
- growth inhibition (GI) [29]: inactive
- Activity [8]: Active
- growth inhibition (GI) [30]: inactive
- growth inhibition (GI) [31]: inactive
- growth inhibition (GI) [32]: inactive
- growth inhibition (GI) [33]: inactive
- growth inhibition (GI) [34]: inactive
- growth inhibition (GI) [10]: inactive
- zone of inhibition at 200 µg/disc [11]: 24 mm
- growth inhibition (GI) [35]: inactive
- growth inhibition (GI) [12]: inactive
- growth inhibition (GI) [36]: inactive
- Activity [13]: Active
- growth inhibition (GI) [37]: inactive
- zone of inhibition at 200 µg/disc [15]: 12 mm
- zone of inhibition at 200 µg/disc [16]: 18 mm
- growth inhibition (GI) [38]: inactive
- growth inhibition (GI) [39]: inactive
- growth inhibition (GI) [40]: inactive
- growth inhibition (GI) [41]: inactive
- growth inhibition (GI) [42]: inactive
- growth inhibition (GI) [43]: inactive
- growth inhibition (GI) [44]: inactive
- growth inhibition (GI) [17]: inactive
- growth inhibition (GI) [45]: inactive
- Activity [18]: Active
- growth inhibition (GI) [46]: inactive
- IC50 [19]: 700 nM
- growth inhibition (GI) [47]: inactive
- growth inhibition (GI) [48]: inactive
- growth inhibition (GI) [49]: inactive
- growth inhibition (GI) [50]: inactive
- growth inhibition (GI) [23]: inactive
- growth inhibition (GI) [51]: inactive
- growth inhibition (GI) [24]: inactive
- growth inhibition (GI) [52]: inactive
- growth inhibition (GI) [53]: inactive
- growth inhibition (GI) [54]: inactive
